Test system: cGVHD target organs
Experiment: Histological observation of cGVHD target organs (HE, Mallory, CD45 immunostaining, electron microscopy, PAS)
Format: in vivo, mouse
Description: Bone marrow transplantation was performed as described in the above section “Bone marrow transplantation,” and the resulting allogeneic bone marrow transplantation recipient mice were divided into two groups. One group was treated with intraperitoneal injection of PBA (10 mg/kg) (Aldrich) while the other was treated with intraperitoneal injection of a solvent vehicle⋅phosphate buffered saline (PBS) (pH 7.4). The allogeneic bone marrow transplantation recipients received once-daily administration of PBA or the solvent vehicle from Day 10 to Day 27 after bone marrow transplantation. They were sacrificed on Day 28 after bone marrow transplantation.
cGVHD-affected organs (exorbital lacrimal gland, proximal portion of the small intestine, dorsal skin, liver, salivary gland, lung, large intestine, and eyes) were analyzed herein.
The exorbital lacrimal gland, the proximal part of the small intestine, dorsal skin, the liver, the salivary gland, the lung, the large intestine, and the eyes were collected from transplant recipients at 3 or 4 weeks after bone marrow transplantation. Subsequently, these samples were fixed with 10% neutral buffered formalin, and then each embedded in paraffin. The resulting paraffin blocks were each cut into 7-μm thick sections, and then stained with • (1) hematoxylin and eosin; • (2) Malory trichrome staining (Hopwood J, Fixation and fixtative. In: Bancroft J D, Stevens A, eds., Theory and Practice of Histological Techniques, 4th ed, Edinburgh: Churchill-Livingstone, 1996:23-46; Anderson G, Gordon K, Tissue processing, microtomy and paraffin sections. In: Bancroft J D, Stevens A, eds. T. Theory and Practice of Histological Techniques, 4th ed, Edinburgh: Churchill-Livingstone, 1996:47-68); and • (3) antibody.
For immunohistochemical assay, paraffin was first removed, and antigens were then collected by either one of the following two antigen collecting methods. • (A) For staining sections with CD45 antibody (30-F11, BD Pharmingen), the sections were immersed in an antigen retrieval solution (Target Retrieval Solution; Dako), and then boiled for 10 minutes in a microwave oven. • (B) For multistaining with CD68 (FA-11, Abd Serotec) and CHOP (F-168, Santa Cruz Biotechnology, Inc.), sections were washed with an antigen retrieval solution (HistoVT One; Nacalai Tesque, Inc.), and then heated in a water bath at 90° C. for 40 minutes. Next, the sections were blocked with 10% normal goat blood serum, and antigens in the tissue sections were then allowed to react with the primary antibodies at 4° C. overnight. Subsequently, the sections were treated with fluorophore-labelled secondary antibodies at room temperature (for example, 1 to 30° C.) for 45 minutes, and then mounted with an anti-fading mounting medium (Fluorescent Mounting Medium; Dako).
Fluorescence images were captured under an LSM confocal microscope (Carl Zeiss). For counting CD45^+ cells, 5 randomly selected regions per section were photographed at a magnification of ×200, and the number of CD45^+ cells in each image was then determined. As secondary antibodies, used were goat anti-mouse IgG (H+L) secondary antibody conjugated with Alexa Fluor 488 (Molecular Probes) and goat anti-rat IgG (H+L) secondary antibody conjugated with Alexa Fluor 568 (Molecular Probes). For isotype controls, rat IgG2b, κ (eB149/10H5, eBioscience, Inc.), rat IgG2a (54447, R&D Systems, Inc.), and rabbit IgG (Cell Signaling Technology, Inc.) were used for CD45, CD68, and CHOP, respectively.
Transmission electron microscopy was performed in accordance with a standard protocol. Tissues were collected from a mouse lacrimal gland and small intestine, and immediately fixed with 2.5% glutaraldehyde in 0.1 M phosphate buffer (pH 7.4) at 4° C. for 4 hours, and then washed 3 times with 0.1 M phosphate buffer. Subsequently, the samples were fixed again with 2% osmium tetroxide, and dehydrated with a gradient series of ethanol and 100% propylene oxide, and then embedded in epoxy resin. […]

[1] = PBA-treated vs vehicle-treated eye, FIG. 4-1A

SMILES: O=C(O)CCCc1ccccc1 [PBA, 4-phenyl-n-butyric acid]
- electron microscopy: hypertrophied endoplasmic reticula, cell fragments, damaged mitochondria, destroyed small villi, damaged adjacent tissues (PBA-treated lacrimal gland and small intestine vs vehicle-treated, FIG. 4-2D): not observed
- goblet cells in conjunctiva epithelium (PAS staining) (PBA-treated vs vehicle-injected eye, n=5, P<0.001, FIG. 4-2F, 4-2G): more goblet cells
- goblet cells in small intestine (PAS staining) (PBA-treated vs vehicle-injected small intestine, n=3, P<0.001, FIG. 4-2F, 4-2G): more goblet cells
- conjunctiva epithelium thinning and damage (HE staining) [1]: thinning and damage were observed in the vehicle-treated conjunctiva epithelium in contrast with the PBA-treated conjunctiva epithelium
- meibomian gland (HE staining) [1]: the meibomian gland of the vehicle-treated eye was decreased and contracted as compared with the PBA-treated meibomian gland
- infiltration of inflammatory cells (HE staining) (PBA-treated vs vehicle-treated organs, FIG. 4-1A): inhibited
- cGVHD-induced systemic fibrosis (Mallory staining) (PBA-treated vs vehicle-treated organs, FIG. 4-1C): substantially inhibited
- numbers of inflammatory cells (CD45+ cells) (PBA-treated vs vehicle-treated organs, immunostaining and counting, n=3, FIG. 4-2E): considerably smaller
- skin thickness, fat tissues, density of collagen bundles (HE staining) (PBA-treated vs vehicle-treated skin, FIG. 4-1A): the vehicle-treated skin became thickened, lost fat tissues, and increased the density of collagen bundles in contrast with the PBA-treated skin
- intestinal villi of small and large intestines (HE staining) (PBA-treated vs vehicle-treated small and large intestines, FIG. 4-1A): not impaired
- structures of the intestinal and conjunctival mucous membranes (PAS staining) (after systemic injection of PBA): remained intact

Source: US20190192458A1, “THERAPEUTIC/PROPHYLACTIC AGENT FOR GRAFT-VERSUS-HOST DISEASE, FIBROCYTE INVASION INHIBITOR, AND INHIBITOR AGAINST TEAR REDUCTION AND REDUCTION IN GOBLET CELLS” (KEIO UNIVERSITY, priority 2016, published 2019)
